Experimental data reported in US20250289812A1, “COMPOUND FOR TREATING THROMBOTIC DISEASES” (SHANGHAI INSTITUTE OF MATERIA MEDICA, CHINESE ACADEMY OF …, priority 2020, published 2025).

Columns and labels:
[1] = target: Src kinase SH3 domain protein (Homo sapiens (Human), UniProt P12931); experiment: Surface plasmon resonance (SPR) determination of dissociation constants with SH3 protein; assay type: binding; settings: SH3 protein coupled to CM5 chip
Description: 1. Experimental method: Surface plasmon resonance test was carried out on BIACORE T200 instrument (GE Company). Fresh purified grade Src kinase SH3 domain protein (concentration 2 mg/ml) was diluted to 0.1 mg/ml with 10 mM CH3COONa (pH 4.2) and then SH3 protein was coupled to the CM5 chip by standard amino coupling methods. The compounds of the invention were diluted in a gradient using a buffer solution (20 mM Tris-HCl, PH 8.0, 100 mM NaCl) for 60 seconds and dissociated for 120 seconds at a flow rate of […], respectively. The changes in response values over time were recorded and analyzed by the BIA Evaluation Software (GE Healthcare) program to obtain the dissociation constants KD for the different compounds with SH3 protein.
2. Experimental results and conclusions: The dissociation constants KD of different compounds and SH3 protein were described in Table 2, and the surface plasmon resonance (SPR) experimental results of some compounds were shown in FIG. 1.

[2] = tested on: platelets on solid phase fibrinogen; experiment: Effect of compound on platelet stretching on solid phase fibrinogen; assay type: cell-based; settings: 1 h, washed platelets, incubated 60 min at 37° C., read-out: Concentration range for compounds that inhibit platelet stretching on fibrinogen
Description: 1. Experimental method: Firstly, 50 μl fibrinogen (0.1M, diluted with pH 8.3 sodium bicarbonate, 20 μg/ml) was added to 96-well plate, and coated overnight at 4° C. After being washed by PBS for 3 times in the morning, sealed with bovine serum albumin (20 mg/ml) at 37° C. for 60 min, then 100 μl of washed platelet suspension was taken, and added into compounds in each group to make the final concentration 250 μM, and incubated at 37° C. for 60 min. 50 μl of incubated platelets were added to 96-well plate, adhered in a temperature box at 37° C. for 60 min, unadhered platelets were removed by PBS washing for 3 times, and adhered platelets were stably fixed with 4% paraformaldehyde, and washed with PBS for 3 times. Then the platelet membrane was perforated with 0.5% Triton X-100, and then the platelet was stained with 0.5 μg/ml phalloidin-rhodamine for 60 min at 37° C. and washed 3 times (10 min each) with PBS.
2. Experimental results and conclusions: The concentration of different compounds on platelet stretching on fibrinogen was shown in Table 3, and the inhibitory effect of some compounds on platelet stretching was shown in FIG. 2.

Src kinase SH3 domain protein, sequence (P12931 whole entry, looked up, the tested form may be a part): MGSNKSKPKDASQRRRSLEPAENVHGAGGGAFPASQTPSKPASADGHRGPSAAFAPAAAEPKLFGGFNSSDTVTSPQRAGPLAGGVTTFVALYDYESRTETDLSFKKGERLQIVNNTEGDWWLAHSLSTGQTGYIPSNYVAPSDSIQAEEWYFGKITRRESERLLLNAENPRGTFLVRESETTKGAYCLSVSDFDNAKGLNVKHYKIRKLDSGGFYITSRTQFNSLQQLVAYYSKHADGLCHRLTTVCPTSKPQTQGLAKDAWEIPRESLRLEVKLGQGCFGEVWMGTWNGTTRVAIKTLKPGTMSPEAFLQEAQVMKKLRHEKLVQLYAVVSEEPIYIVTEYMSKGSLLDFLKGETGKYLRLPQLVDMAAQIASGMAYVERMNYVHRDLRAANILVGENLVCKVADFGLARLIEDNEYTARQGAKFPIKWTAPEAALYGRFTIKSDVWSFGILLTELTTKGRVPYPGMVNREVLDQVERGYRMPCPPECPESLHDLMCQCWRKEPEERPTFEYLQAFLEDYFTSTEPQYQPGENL

SMILES: CCOC(=O)c1c(CSC(=N)N)n(C)c2ccc3ccccc3c12 [SYY-C062]
- Kd [1]: < 1000 nM
- minimal effective concentration [2]: 10 to 100 µM

SMILES: CCOC(=O)c1c(CSC(=N)N)n(C)c2cc(C3CC4CCC3C4)ccc12 (stereo not shown) [SYY-C063]
- Kd [1]: < 1000 nM
- minimal effective concentration [2]: 10 to 100 µM

SMILES: CCOC(=O)c1c(CNC(=N)N)n(C)c2ccc(-c3ccc4ccccc4c3)cc12 [SYY-C065]
- Kd [1]: 10000 to 100000 nM
- minimal effective concentration [2]: 10 to 100 µM

SMILES: CCOC(=O)c1c(CNC(=N)N)n(C)c2cc(-c3ccnc4ccccc34)ccc12 [SYY-C066]
- Kd [1]: < 1000 nM
- minimal effective concentration [2]: 10 to 100 µM

SMILES: CCOC(=O)c1c(CNC(=N)N)n(C)c2cc(-c3cccc4ncccc34)ccc12 [SYY-C067]
- Kd [1]: < 1000 nM
- minimal effective concentration [2]: 10 to 100 µM

SMILES: CCOC(=O)c1c(CNC(=N)N)n(C)c2cc(C3=CCCc4ccccc43)ccc12 [SYY-C068]
- Kd [1]: 1000 to 10000 nM
- minimal effective concentration [2]: 100 to 250 µM

SMILES: CCOC(=O)c1c(CNC(=N)N)n(C)c2ccc(-c3cccc4ccccc34)cc12 [SYY-C070]
- Kd [1]: < 1000 nM
- minimal effective concentration [2]: 10 to 100 µM

SMILES: CCOC(=O)c1c(CNC(=N)N)n(C)c2ccc(C3=CCCc4ccccc43)cc12 [SYY-C071]
- Kd [1]: < 1000 nM
- minimal effective concentration [2]: 10 to 100 µM

SMILES: CCOC(=O)c1c(CNC(=N)N)n(C)c2cc(-c3ccc(C)c4ccccc34)ccc12 [SYY-C072]
- Kd [1]: 1000 to 10000 nM
- minimal effective concentration [2]: 10 to 100 µM

SMILES: CCOC(=O)c1c(CNC(=N)N)n(C)c2cc(-c3cncc4ccccc34)ccc12 [SYY-C073]
- Kd [1]: < 1000 nM
- minimal effective concentration [2]: 10 to 100 µM

SMILES: CCOC(=O)c1c(CNC(=N)N)n(C)c2cc(-c3cccc4cnccc34)ccc12 [SYY-C074]
- Kd [1]: 10000 to 100000 nM
- minimal effective concentration [2]: 10 to 100 µM

SMILES: CCOC(=O)c1c(CNC(=N)N)n(C)c2cc(-c3cccc4cccnc34)ccc12 [SYY-C075]
- Kd [1]: < 1000 nM
- minimal effective concentration [2]: 10 to 100 µM

SMILES: CCOC(=O)c1c(CNC(=N)N)n(C)c2cc(-c3ccc(F)c4ccccc34)ccc12 [SYY-C076]
- Kd [1]: 1000 to 10000 nM
- minimal effective concentration [2]: 100 to 250 µM

SMILES: CCOC(=O)c1c(CNC(=N)N)n(C)c2cc(-c3cccc4ccncc34)ccc12 [SYY-C077]
- Kd [1]: < 1000 nM
- minimal effective concentration [2]: 10 to 100 µM

SMILES: CCOC(=O)c1c(CNC(=N)N)n(C)c2cc(-c3c4ccccc4cc4ccccc34)ccc12 [SYY-C078]
- Kd [1]: < 1000 nM
- minimal effective concentration [2]: 10 to 100 µM

SMILES: CCOC(=O)c1c(CNC(=N)N)n(C(C)C)c2cc(-c3cccc4ccccc34)ccc12 [SYY-C079]
- Kd [1]: < 1000 nM
- minimal effective concentration [2]: 10 to 100 µM

SMILES: CCOC(=O)c1c(CNC(=N)N)n(C)c2cc(-c3cccc4cc(C)ccc34)ccc12 [SYY-C080]
- Kd [1]: < 1000 nM
- minimal effective concentration [2]: 10 to 100 µM

SMILES: CCOC(=O)c1c(CNC(=N)N)n(C)c2cc(-c3cccc4c(C)cccc34)ccc12 [SYY-C081]
- Kd [1]: < 1000 nM
- minimal effective concentration [2]: 10 to 100 µM

SMILES: CCOC(=O)c1c(CNC(=N)N)n(-c2ccccc2)c2cc(-c3cccc4ccccc34)ccc12 [SYY-C082]
- Kd [1]: < 1000 nM
- minimal effective concentration [2]: 10 to 100 µM

SMILES: CCOC(=O)c1c(CNC(=N)N)n(C)c2cc(-c3ccc(Cl)c4ccccc34)ccc12 [SYY-C083]
- Kd [1]: 1000 to 10000 nM
- minimal effective concentration [2]: 100 to 250 µM

SMILES: CCOC(=O)c1c(CNC(=N)N)n(C)c2cc(-c3cccc4c(Cl)cccc34)ccc12 [SYY-C084]
- Kd [1]: < 1000 nM
- minimal effective concentration [2]: 10 to 100 µM

SMILES: CCOC(=O)c1c(CNC(=N)N)n(C)c2cc(-c3cc(C)cc4ccccc34)ccc12 [SYY-C085]
- Kd [1]: < 1000 nM
- minimal effective concentration [2]: 10 to 100 µM

SMILES: CCOC(=O)c1c(CNC(=N)N)n(C)c2cc(C3=CCOc4ccccc43)ccc12 [SYY-C086]
- Kd [1]: < 1000 nM
- minimal effective concentration [2]: 10 to 100 µM

SMILES: CCOC(=O)c1c(CNC(=N)N)n(C)c2cc(-c3cccc4ccc(C)cc34)ccc12 [SYY-C087]
- Kd [1]: 10000 to 100000 nM
- minimal effective concentration [2]: 100 to 250 µM

SMILES: CCOC(=O)c1c(CNC(=N)N)n(C)c2cc(-c3c4c(cc5c3CCCC5)CCCC4)ccc12 [SYY-C088]
- Kd [1]: 10000 to 100000 nM
- minimal effective concentration [2]: 100 to 250 µM

SMILES: CCOC(=O)c1c(CNC(=N)N)n(C)c2cc(-c3cccc4c(F)cccc34)ccc12 [SYY-C089]
- Kd [1]: < 1000 nM
- minimal effective concentration [2]: 10 to 100 µM
